Ends that are not written are not given here.
Tests used:
Type in all cases: cell-based
X4 tropic HIV-1 NL4-3 = assay: X4 tropic HIV-1 infection and replication in PBMC, p24 antigen ELISA; settings: 100 μM peptide, day 6 post infection
Procedure: To analyze the effect of ALB408-423 and derivatives thereof in relevant primary cells, peripheral blood mononuclear cells were isolated from Buffy coat derived from the DRK-Blutspendedienst Baden-Württemberg-Hessen using Ficoll density centrifugation. 1×10^6 PBMC per ml were stimulated with 1 μg/ml phytohemagglutinine (PHA, Oxoid, #3085280) and 10 ng/ml Interleukin 2 (IL-2, Strathmann, #9511192) for three days. Thereafter cells were pelleted and resuspended in IL-2 containing medium. 1.5×10^5 PBMC (250 μl) were seeded in 96 well dishes, peptides were added and cells were infected with […] p24 antigen of X4 tropic HIV-1 NL4-3. Supernatants containing progeny virus were taken at day 1, 3 and 6 post infection. Virus production was measured by p24 antigen ELISA (SAIC-Frederick, Inc [AIDS & Cancer virus program]). […] In the presence of 20 μM peptides virus replication was severely impaired.
FIG. 11. ALB408-423 and derivatives inhibit X4 tropic HIV-1 infection of peripheral blood mononuclear cells (PBMC). Cells were incubated with indicated concentrations of ALB408-423 or truncated variants and infected with X4 tropic HIV-1. Supernatants obtained after 6 days were analyzed by p24 ELISA. Shown are mean p24 antigen values (ng/ml) derived from triplicate infections±standard deviation.

CXCR4 = CXCR4 (Homo sapiens, UniProt P61073); assay: Ca2+ mobilization in CXCR4 expressing HEK293 cells (indo-1); design: expressed in transfected cells
CXCR4, sequence (P61073 whole entry): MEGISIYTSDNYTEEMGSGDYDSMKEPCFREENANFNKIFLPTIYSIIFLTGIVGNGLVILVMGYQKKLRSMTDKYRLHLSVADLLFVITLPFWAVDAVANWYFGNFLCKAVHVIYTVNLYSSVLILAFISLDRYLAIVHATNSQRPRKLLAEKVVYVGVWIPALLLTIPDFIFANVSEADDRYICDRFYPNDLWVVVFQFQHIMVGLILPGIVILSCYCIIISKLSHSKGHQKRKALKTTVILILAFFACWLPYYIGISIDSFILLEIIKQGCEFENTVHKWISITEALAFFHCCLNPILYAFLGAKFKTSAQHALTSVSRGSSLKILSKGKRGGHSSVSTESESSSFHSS
Procedure: Ca^2+ responses were recorded.
FIG. 17. CXCR4 antagonistic activities of ALB derivatives. […] CXCR4 or CCR5 expressing HEK293 cells were treated with CXCR4 agonist CXCL12 (10 nM) or CCR5 agonist CCL5 (20 nM), respectively, in the absence (no ALB) or presence of indicated ALB derivatives (50 μM). Calcium responses were recorded as described. Data shown are mean values±standard deviation derived from duplicates relative to peak calcium responses after treatment with agonists only (100%). […] CXCR4 expressing HEK293 cells were treated with Texas Red labeled CXCL12 (CXCL12-Tr) in the presence or absence of ALB peptides. Real-time fluorescence monitoring of ligand-receptor interactions was carried out as described. Shown are bound CXCL12-Tr levels in the presence of ALB peptides relative to CXCL12-Tr only treated cells (100% bound). Values were derived from a duplicate experiment.

[1] = system: CCR5 tropic HIV-1 variants; assay: Infection of TZM-bl cells by R5 tropic HIV-1 variants, GalScreen
Procedure: 5000 TZM-bl cells were seeded in 100 μl of DMEM (10% FCS, 100 U/ml of penicillin G and 100 μg/ml of streptomycin sulfate). ALB408-423 was dissolved in PBS (10 mg/ml). One day later, 20 μl serial dilutions of ALB408-423 in PBS were added to cells and cells were subsequently infected with 0.5 ng of p24 antigen HIV-1 in a total volume of 200 μl. HIV-1 molecular clones differing in coreceptor tropism were used and generated as described (Papkalla et al., J. Virol. 76: 8455-9, 2002).
FIG. 3: Chemically synthesized ALB408-423 specifically blocks X4 tropic HIV-1 infection. TZM-bl cells containing indicated dilutions of peptide were infected with HIV-1 variants differing in their coreceptor tropism. 3 days later Gal Screen assay was used to measure infection rates. […] B) Infection rates in the presence of 500 μg/ml ALB408-423 showing that the peptide specifically blocks X4 but not R5 tropic HIV-1 infection. Data shown are mean values±standard deviation derived from triplicate infections relative to PBS containing cells (100% infection).
After 3 days, infection was detected using GalScreen assay (TROPIX) (example 1). […] In contrast, CCR5 tropic HIV-1 variants were not inhibited even in the presence of very high doses of ALB408-423 (500 μg/ml) (FIG. 3B). Due to the specific inhibition of the infection caused by X4-tropic HIV-1 variants, it is to be assumed that ALB408-423 interacts with the chemokine receptor CXCR4.
Virus stocks were first titrated on TZM-bl cells. Then TZM-bl cells containing 100 μM of peptides were infected with infectivity normalized amounts of X4, dualtropic (X4/R5) or R5 tropic HIV-1.
FIG. 10. ALB408-423 and truncated ALB derivatives specifically block X4 tropic HIV-1 infection. TZM-bl cells either containing PBS or 100 μM of indicated peptides were infected with normalized infectivities of X4, dualtropic or R5 tropic HIV-1 clones. Infection rates were measured 2 days post infection using the GalScreen assay. Shown are mean values (% of PBS treated control)±standard deviations derived from triplicate measurements.

[2] = system: Jurkat T cells expressing CXCR4; assay: CXCL12 mediated migration of Jurkat T cells, transwell; settings: 360 μg/ml, 2 h
Procedure: CXCL12-CXCR4 signaling plays a crucial role in several diseases such as HIV/AIDS, cancer, leukemia and arthritis. CXCL12 expressing organs, tissues or cells can attract CXCR4 expressing tumor cells and allow metastasis. To investigate whether ALB408-423 is able to inhibit CXCL12 mediated tumor cell migration, migration assays were performed using Jurkat T cells expressing CXCR4 as model system (Princen et al., 2004, J.Virol. 78: 12996-13006). Jurkat T cells were suspended at 0.4×106 (200 μl) in medium containing 10% FBS, then the cell suspension (200 μl) was added to the upper compartment of 5 μm pore filter devices (Transwell, 24-well cell culture, Costar). Then, 600?l culture medium with or without CXCL12 (100 ng/ml) was added to the lower compartment allowing attraction of cells from the upper compartment. […] After incubation, plates were removed and 100 μl of cells that migrated to the lower compartment were either counted directly using a counting chamber or analyzed using a proliferation assay (CellTiter-Glo® Reagent, PROMEGA) as recommended by the manufacturer. […]
FIG. 16. […] After 2 hrs incubation at 37° C., the number of migrated cells in the lower compartment was detected by measuring intracellular ATP levels using CellTiter-Glo® Luminescent Cell Viability Assay kit (PROMEGA). […]

Sequence: LVRYTKKVPQVSTPTL [ALB408-423, LVRYTKKVPQVSTPTL]
- p24 antigen in supernatants (X4 tropic HIV-1 NL4-3): No p24 antigen could be detected
- Ki (CXCR4): 46.4 µM
- inhibition of CXCL12-evoked calcium responses (CXCR4; 50 μM peptide, HEK EGFP-CXCR4 cells): 70%
- agonism: calcium response induced by the peptide alone, CXCR4 (CXCR4; 50 μM peptide, no chemokine): does not induce any calcium response
- effect on R5 tropic HIV-1 infection ([1]; 100 μM peptide): no effect
- inhibition of CCR5 tropic HIV-1 variants ([1]; 500 μg/ml): not inhibited
- block of CXCL12 induced cell migration [2]: almost completely
